Measured values: patent US6977254B2, “Hydroxy cyclohexenyl phenyl carboxamides tocolytic oxytocin receptor antagonists” (Wyeth, priority 2001, dated 2005)

Tests used:
human oxytocin receptor = target: T1, human oxytocin receptor (Homo sapiens, UniProt P30559); test: Oxytocin binding in CHO cell membranes expressing human oxytocin receptors ([3H]oxytocin radioligand); conditions: for IC50: value in parentheses, read-out: OT (IC50)
T1 construct: host or cells: CHO cells, stably transfected (pcDNA3.1 vector); membranes
T1 sequence (P30559 1-389): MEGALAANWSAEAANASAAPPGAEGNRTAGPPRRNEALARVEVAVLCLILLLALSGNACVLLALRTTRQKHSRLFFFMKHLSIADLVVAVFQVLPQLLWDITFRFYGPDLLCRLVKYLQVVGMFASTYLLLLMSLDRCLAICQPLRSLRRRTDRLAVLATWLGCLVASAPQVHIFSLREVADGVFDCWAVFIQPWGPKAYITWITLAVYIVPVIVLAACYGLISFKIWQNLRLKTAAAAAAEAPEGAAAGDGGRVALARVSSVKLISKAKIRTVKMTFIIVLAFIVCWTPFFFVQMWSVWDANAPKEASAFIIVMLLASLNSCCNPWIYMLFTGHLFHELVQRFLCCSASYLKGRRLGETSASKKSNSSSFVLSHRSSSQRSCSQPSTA
Description: Oxytocin binding in Chinese Hamster Ovary cell membranes expressing human oxytocin receptors
Chinese Hamster Ovary (CHO) cells stably transfected with the human oxytocin (cf. T. Kimura et al., U.S. Pat. No. 5,466,584 (1995) to Rohto Pharmaceutical Co. Ltd., Osaka, Japan) were obtained from Dr. M. Thibonnier, Case Western Reserve University School of Medicine, Cleveland, Ohio.
A. Passaging and Amplification of Cells:
CHO cells transfected with the human oxytocin receptors obtained from M. Thibonnier (pcDNA3.1 vector) are allowed to grow to confluency (approx. >90%) in T-150 flasks under sterile conditions, in a cell culture medium of F-12 Nutrient Mixture (HAM) with L-glutamine (Gibco Cat. #11765-054) containing 15 mM HEPES (Gibco Cat. #15630-080), 1% antibiotic/antimycotic (add 5 mL 100×, Gibco Cat. #15240-062 per 500 mL F-12), 400 μg/mL of Geneticin (add 4 mL of 50 mg/mL per 500 mL F-12) and 10% Fetal Bovine Serum (Qualified, heat inactivated, Gibco Cat. #16140-063). The medium is removed by aspiration and the cells are washed with 10 mL of Hank's Balanced Salt solution (Gibco Cat. #14175-095). The salt solution is removed by aspiration and the cells trypsinized with 5 mL of trypsin-EDTA (0.05% trypsin, 0.53 mM EDTA-4Na, Gibco Cat. #25300-070) for 1 min The trypsin is removed by aspiration and the cells dislodged by tapping. Cell Culture medium (e.g. 30 mL for 1:30 split) is immediately added and mixed well to inactivate trypsin. 1 mL of detached cells is added to new culture flasks containing fresh Cell Culture medium (e.g. into 25 mL per T-150 flask), and mixed gently. The cells are incubated at 37° C. in 5% CO2. The medium is changed at 3 to 4 days interval (or as appropriate). The cells grow to confluency (approx. >75%-95%) within 7-8 days. All steps are done under sterile conditions.
The cells are washed twice gently with Hank's Balanced Salt solution (eg, use 10 mL per T-150 flask). The excess is removed and the cells bathed for 15-30 min. in an enzyme-free Cell Dissociation Buffer (eg, use 8 mL Hank's Based, Gibco Cat. #13150-016 per T-150 flask) until cells are loosened. The contents are transferred to centrifuge tubes (50 mL size) kept in ice bath. All subsequent steps are done at 4° C. The tubes are centrifuged at 300×g for 15 min (1380 rpm on SORVAL, Model RT6000D, using rotor for 50 mL tubes). The supernatant is discarded and the cells suspended in homogenizing buffer (10 mM Tris-HCl containing 0.25 M sucrose and 1 mM EDTA, pH 7.4) ensuring that the volume of the buffer is about ten times the volume of the cell pellet. The cells are pooled into a centrifuge tube (50 mL) and homogenized with Polytron at setting 6 for 10 sec. The homogenate is transferred into a Potter-Elvjehm homogenizer and homogenized with 3 strokes. The homogenate is centrifuged at 1500×g for 10 min at 4° C. (3100 rpm using SORVAL, model RT6000D, using rotor for 50 mL tubes). The pellet is discarded. The supernatant is centrifuged at 100,000×g for 60 min. at 4° C. (Beckman L8-80M ultracentrifuge; spin at 37,500 rpm with rotor type 70 Ti for 50 mL tubes; 38,000 rpm with type 80Ti for 15 mL tubes; or 35,800 rpm with rotor type 45Ti). The supernantant is discarded and the pellet suspended in 3 to 4 mL of Tris buffer (50 mM TRIS-HCl, pH 7.4). The protein content is estimated by the Bradford or Lowry method. The volume of the membrane suspension is adjusted with the membrane buffer (50 mM Tris-HCl containing 0.1% BSA and 0.1 mM PMSF) to give 3.0 mg/mL (or as appropriate) of protein. The membranes are aliquoted and stored at −70° C.
C. Radioligand Binding Assay:
In wells of a 96-well format microtiter plate, is added 90, 110 or 130 μL (to make up a final volume of 200 μL) of assay buffer containing 50 mM of Tris-HCl (pH 7.4), […], 1 mg % aprotinin, 1 mg % leupeptin, 2 mg % 1,10-phenanthroline, 10 mg % trypsin inhibitor, and 0.1 mM PMSF. The inhibitors are added on the day of the experiment. […]

Row | IC50 (human oxytocin receptor) [nM] | melting point [°C] | inhibition at 0.1 µM (human oxytocin receptor; 100 nM, value without parentheses, read-out: OT % inhibition @ 100 nM) [%] | Structure (SMILES)
1 | 2.07 | 155 to 157 |  | COc1cc(C2=CCCCC2)c(Cl)cc1C(=O)N1Cc2ccc(C(=O)N(C)CC(O)CO)n2Cc2ccccc21 (centres unmarked) [Example 4, 10-(5-Chloro-4-cyclohex-1-en-1-yl-2-methoxybenzoyl)-N-(2,3-dihydroxypropyl)-N-methyl-10,11-dihydro-5H-pyrrolo[2,1-c][1,4]benzodiazepine-3-carboxamide]
2 | 0.96 | 166 to 175 |  | Cc1cc(C(=O)N2Cc3ccc(C(=O)N(C)C[C@H](O)[C@H]4OC(=O)O[C@@H]4[C@H](O)CO)n3Cc3ccccc32)ccc1C1=CCCCC1 [Example 6, 10-(4-Cyclohex-1-en-1-yl-3-methylbenzoyl)-N-((2S)-2-{(4R,5R)-5-[(1R)-1,2-dihydroxyethyl]-2-oxo-1,3-dioxolan-4-yl}-2-hydroxyethyl)-N-methyl-10,11-dihydro-5H-pyrrolo[2,1-c][1,4]benzodiazepine-3-carboxamide]
3 |  | 162 to 168 | 99 | Cc1cc(C(=O)N2Cc3ccc(C(=O)N(C)C[C@@H]4OC(=O)O[C@H]4[C@H](O)[C@H]4COC(=O)O4)n3Cc3ccccc32)ccc1C1=CCCCC1 [Example 7, 10-(4-Cyclohex-1-en-1-yl-3-methylbenzoyl)-N-[((4S,5S)-5-{(R)-hydroxy[(4R)-2-oxo-1,3-dioxolan-4-yl]methyl}-2-oxo-1,3-dioxolan-4-yl)methyl]-N-methyl-10,11-dihydro-5H-pyrrolo[2,1-c][1,4]benzodiazepine-3-carboxamide]
4 | 13 | 68 to 83 |  | COC[C@@H](OC)[C@@H](OC)[C@H](OC)[C@H](CN(C)C(=O)c1ccc2n1Cc1ccccc1N(C(=O)c1ccc(C3=CCCCC3)c(C)c1)C2)OC [Example 8, 10-(4-Cyclohex-1-en-1-yl-3-methylbenzoyl)-N-methyl-N-[(2S,3R,4R,5R)-2,3,4,5,6-pentamethoxyhexyl]-10,11-dihydro-5H-pyrrolo[2,1-c][1,4]benzodiazepine-3-carboxamide]
